Measurements taken from patent US9248163B2, “Insulin-like growth factor binding protein 7 for treatment of cancer” (University of Massachusetts, priority 2007, dated 2016).

What was measured:
melanocytes = test: Senescence-associated β-galactosidase assay; assay type: cell-based, human; settings: rIGFBP7 10 μg/ml for 14 days; growth-arrested cells
Experimental: Melanocytes infected with a retrovirus expressing either vector or BRAFV600E, or melanocytes treated with BRAFV600E/melanocyte CM or rIGFBP7 (10 μg/ml) for 14 days were washed twice with PBS (5 minutes at room temperature), fixed with 3% formaldehyde (5 minutes at room temperature), and washed three more times with PBS. Cells were then incubated at 37° C. (0% CO2) overnight in SA-β-Gal stain solution (1 mg/mL X-Gal (5-bromo-4-chloro-3-indoyl b-D-galactoside), 40 mM citric acid/sodium phosphate (pH 6.0), 5 mM potassium ferrocyanide, 5 mM potassium ferricyanide, 150 mM NaCl and 2 mM MgCl2). Cells were washed with PBS and visualized on a Zeiss Axiovert™ 40 CFL microscope. Images were captured using QCapture™ Pro version 5 software (QImaging Corporation).

[1] = test system: human melanoma cell lines; test: Proliferation assay of human melanoma cell lines; assay type: cell-based; settings: 24 hours, 10 μg/ml
Experimental: For the proliferation assay shown in FIG. 1B, 1×10^4 cells stably expressing an shRNA were cultured in 12-well plate format, infected with BRAFV600E-expressing retrovirus and after 14 days stained with crystal violet. For all other quantitative proliferation assays, cell viability was measured by trypan blue exclusion test at the time point indicated in the relevant figure legend. Values were expressed as percent cell growth, as described in the relevant figure legend. For the proliferation assays shown in FIG. 2A, CM was replenished every 3 days, and proliferation was measured after a total of 14 days of CM treatment. Unless otherwise stated, rIGFBP7 was added to the culture medium at a concentration of 10 μg/ml.
Next, the ability of IGFBP7 to block cellular proliferation in a panel of human melanoma cell lines was analyzed. The cells contained either an activating BRAF mutation (BRAFV600E; SK-MEL-28, MALME-3M, WM793B, WM39 and WM278), an activating RAS mutation (RASQ61R; SK-MEL-2, SK-MEL-103, and WM1366), or were wild type for both BRAF and RAS (CHL, SK-MEL-31, WM1321 and WM3211). For each cell line, the presence of IGFBP7 in the CM was determined by immunoblot analysis (FIG. 3A), and sensitivity to IGFBP7-induced growth inhibition was measured in a proliferation assay (FIG. 3B). The results reveal a striking inverse correlation between IGFBP7 expression and sensitivity to IGFBP7-mediated growth inhibition that correlates with the status of BRAF or RAS.

[2] = test system: human melanoma cell lines; test: Apoptosis assay (Annexin V-PE) in melanoma cells; assay type: cell-based
Experimental: PFF fibroblasts or melanocytes or shRNA knockdown derivatives (5×10^5 cells) were infected with BRAFV600E-expressing retrovirus, and 4 days later the total cell population was stained for Annexin V-PE (BD Biosciences). To monitor apoptosis in melanoma cells following rIGFBP7 treatment, 5×10^5 cells were treated with rIGFBP7 (10 μg/ml) for 24 hours and stained for Annexin V-PE.
Finally, it was determined whether apoptosis was dependent upon the continual presence of rIGFBP7 or was irreversible following transient exposure to rIGFBP7. SK-MEL-28 cells were incubated with rIGFBP7 for various lengths of time, following which the cells were washed and cultured in medium lacking rIGFBP7, and apoptosis was quantitated after 24 hours. The results, shown in FIG. 3H, indicate that following 6 hours of incubation with rIGFBP7, the cells were irreversibly committed to apoptosis, which occurred even following removal of rIGFBP7.

SK-MEL-28 cells = test: ChIP assays 24 hours following rIGFBP7 treatment; assay type: cell-based, human
Experimental: Chromatin immunoprecipitation (ChIP) assays were performed using extracts prepared 24 hours following rIGFBP7 treatment. The following antibodies were used: α-BRG1 (de La Serna et al., 2000, Mol. Cell. Biol., 20:2839-51), α-phospho-STAT1 (Upstate), and α-SMARCB1 and α-STAT1 (Santa Cruz). For ChIP experiments on the SMARCB1 promoter, primers spanning a STAT1 binding site located ˜2.4 kb upstream of the transcription start-site were used. For ChIP experiments on the BNIP3L promoter, a series of primer-pairs that covered ˜2 kb of the BNIP3L promoter were used; following addition of rIGFBP7, SMARCB1 and BRG1 were recruited to the BNIP3L promoter near the transcription start-site. ChIP products were analyzed by quantitative real-time PCR using Platinum SYBR™ Green qPCR SuperMix-UDG with Rox (Invitrogen). Calculation of fold differences was done as previously described (Pfaffl, 2001, Nucleic Acids Res., 29:e45).

[3] = test system: SK-MEL-28 (BRAFV600E-positive) tumors; test: Tumor formation assay, SK-MEL-28 xenograft in nude mice; assay type: in vivo, athymic Balb/c (nu/nu) mice
Experimental: 5×10^6 SK-MEL-28 or SK-MEL-31 cells were suspended in 100 μl of serum-free DMEM and injected subcutaneously into the right flank of athymic Balb/c (nu/nu) mice (Taconic). Three, six, and nine days later, the mice were injected at the tumor site with either 20 μg of rIGBP7 in a total volume of 100 μl or, as a control, PBS. Tumor dimensions were measured every three days and tumor volume was calculated using the formula π/6×(length)×(width)^2. For the systemic administration experiments, 5×10^6 SK-MEL-28 or SK-MEL-31 cells were injected into the flanks of nude mice and when tumors reached a size of 100 mm3, 100 μg rIGFBP7 in a total volume of 100 μl was delivered by tail vein injection at days 6, 9, and 12. Tumor dimensions were measured every three days. Animal experiments were performed in accordance with the Institutional Animal Care and Use Committee (IACUC) guidelines.

In the case of “rIGFBP7: purified recombinant human IGFBP7, C-terminal Flag-tagged, from baculovirus-infected Sf9 insect cells”, the “senescence-associated β-galactosidase staining” value (melanocytes) is reported as “stained positively”, the “sensitivity to IGFBP7-mediated growth inhibition” value ([1]; cells with wild type BRAF and RAS) is reported as “relatively insensitive” and the “sensitivity to IGFBP7-mediated growth inhibition” value ([1]; melanoma cell lines with activating BRAF mutation (BRAFV600E)) is reported as “highly sensitive”. The “sensitivity to IGFBP7-mediated growth inhibition” value ([1]; melanoma cell lines with activating RAS mutation (RASQ61R)) was “partially sensitive”, the “incubation time after which cells were irreversibly committed to apoptosis” value ([2]; SK-MEL-28 cells, washed, apoptosis quantitated after 24 hours) was 6 h and the surviving senescent cells ([2]; melanoma cell lines with activating BRAF mutation) was “undetectable”. For the same substance, the apoptosis ([2]; melanoma cell lines with activating BRAF mutation, 10 μg/ml, 24 hours) was “strongly induced apoptosis”, the “STAT1 recruitment to the SMARCB1 promoter” value (SK-MEL-28 cells; SK-MEL-28 cells) was “recruited” and the “SMARCB1 and BRG1 recruitment to the BNIP3L promoter” value (SK-MEL-28 cells; near the transcription start-site) was “recruited”. For the same substance, the tumor growth ([3]; injected at the tumor site, 20 μg, days 3, 6 and 9) was “substantially suppressed growth”, the “TUNEL labeling of tumors” value ([3]; mice treated with rIGFBP7) was “positive” and the tumor growth ([3]; systemic, 100 μg by tail vein injection at days 6, 9 and 12) was “completely suppressed growth”. For the same substance, the “suppression of tumor growth, dose dependence” value ([3]; systemic, 2, 20, 50, 100 or 250 μg, tumor volume at day 21) was “dose-dependent” and the adverse effects ([3]; systemic, concentrations higher than required for inhibition of tumor growth) was “without apparent adverse effects”.
